No end group written: not given here.
Assays:
S. aureus dltA = type: cell-based, Staphylococcus aureus; conditions: 10 mM NaP-10 mM NaCl, CFU assay
Procedure: (§1) Antimicrobial assays. Antimicrobial assays were performed using the CFU assay as previously described (Rieg, S. et al. 2005 J. Immunol. 174:8003-8010, Schittek, B. et al. 2001 Nat. Immunol. 2:1133-1137). The antibacterial activity of DCD-derived peptides and LL-37 was tested against the following bacterial strains: Escherichia coli ATCC 25922, methicillin-susceptible Staphylococcus aureus ATCC 25923 (MSSA), methicillin-resistant Staphylococcus aureus (MRSA; clinical isolate), Staphylococcus epidermidis ATCC 12228, and Pseudomonas aeruginosa ATCC 27853. E. coli ML-35p was generously provided by Robert Lehrer (Department of Medicine, Center for Health Sciences, Los Angeles, Calif.) and cultivated on Luria-Bertani (LB) plates containing 50 μg of ampicillin/ml. This strain constitutively expresses cytoplasmic […] but lacks lactose permease (Lehrer, R. I. et al. 1988 J. Immunol. Methods 108:153-158). The bacterial membrane mutants Staphylococcus aureus mprF and dltA and Staphylococcus epidermidis Δica and the corresponding wild-type strains S. aureus 113 and S. epidermidis 1457 were previously described (Gotz, F. 2002 Mol. Microbiol. 43:1367-1378, Peschel, A. et al. 2001 J. Exp. Med. 193:1067-1076). Bacterial cultures were grown to mid-exponential growth phase and washed three times with 10 mM sodium phosphate buffer-10 mM NaCl (pH 7.0). The bacterial concentration was estimated photometrically at 600 nm. Absorbance of 1.0 corresponded to 8.56×10^8/ml for E. coli; 1×10^8/ml for E. coli ML-35p; 1.97×10^8/ml for S. aureus, MRSA, and the wild-type and membrane mutants of S. aureus and S. epidermidis; and 5.07×10^8/ml for P. aeruginosa.
(§2) After dilution to a concentration of 10^6 CFU/ml, 10-μl portions of the dilutions were incubated at 37° C. for 2 to 4 h with the respective peptide diluted in water in a total volume of 30 μl in 10 mM sodium phosphate buffer-10 mM NaCl (pH 7.0). After incubation, the cells were diluted 1:100 in 10 mM sodium phosphate buffer-10 mM NaCl (pH 7.0), and 90 μl of the diluted bacterial suspension was plated in triplicates on blood agar. Bacterial colonies were counted after incubation for 18 to 24 h at 37° C. The antimicrobial activity was calculated by using [(cell survival after peptide incubation)/(cell survival in buffer without peptide)×100]. The LC90 describes the lethal concentration of the current synthetic peptide in μg/ml or μM that leads to a 90% reduction of CFU compared to the buffer control.
(§3) ^aThe 90% inhibitory concentration (IC90) is the concentration of peptide in μg/ml (or in μM [in parentheses]) able to kill 90% of the microorganisms in 10 mM NaP-10 mM NaCl in a CFU assay compared to the control incubated only in buffer without peptide. ND, not determined.

[1] = tested on: S. aureus (MSSA) ATCC 25923; type: cell-based, Staphylococcus aureus
Procedure: as §1, §2, §3

S. aureus mprF = type: cell-based, Staphylococcus aureus; conditions: 10 mM NaP-10 mM NaCl, CFU assay
Procedure: as §1, §2, §3

[2] = tested on: S. epidermidis ATCC 12228; type: cell-based, Staphylococcus epidermidis
Procedure: as §1, §2, §3

S. epidermidis Δica = type: cell-based, Staphylococcus epidermidis; conditions: 10 mM NaP-10 mM NaCl, CFU assay
Procedure: as §1, §2, §3

E. coli ML-35p = type: cell-based, Escherichia coli; conditions: 10 mM NaP-10 mM NaCl, CFU assay
Procedure: as §1, §2, §3

E. coli ATCC 25922 = type: cell-based, Escherichia coli
Procedure: as §1, §2, §3

P. aeruginosa ATCC 27853 = type: cell-based, Pseudomonas aeruginosa
Procedure: as §1, §2, §3

[3] = tested on: Escherichia coli, Staphylococcus aureus, Enterococcus faecalis and Candida albicans; assay: CFU test (colony-forming units), Example 4; type: cell-based; conditions: sodium phosphate buffer, 37° C., 3 h, 4 h or overnight
Procedure: The antimicrobial effect of said peptides was carried out by a CFU test (test for colony-forming units) as described for the defensins by Valore et al., “Human Beta-Defensin-1: An Antimicrobial Peptide of Urogenital Tissues”, J Clin Invest 101, 1633-1642 (1998).
The test of the novel peptides was carried out with Escherichia coli, Staphylococcus aureus, Enterococcus faecalis and Candida albicans. E. coli was incubated in LB medium, E. faecalis and S. aureus in Columbia medium (Difko, BD Heidelberg) and C. albicans in casein hydrolysate medium (Merck, Darmstadt). The amounts of bacteria and yeasts were determined by photometry. The bacterial strains were incubated to an optical density of […] at 600 nm and the yeast was incubated to an optical density of 0.4-0.6 at 450 nm. The amount of the organisms was determined by plating various dilutions as follows: an OD of 1 at 600 nm is equivalent to 8.2×10^9/ml for E. coli, 1.9×10^10/ml for S. aureus and 9.0×10^9/ml for E. faecalis, and an OD of 1 at […] is equivalent to 1.4×10^8/ml for C. albicans.
The cells were washed twice with 10 mM sodium phosphate buffer (pH 7.4) and diluted to 2-3×10^7 cells/ml (E. coli, E. faecalis), 5.7×10^7 cells/ml (S. aureus) or 5×10^5 cells/ml (C. albicans) in phosphate buffer.
The cells were incubated with various amounts of the peptides in 200 μl of sodium phosphate buffer at 37° C. for 3 h, 4 h or overnight (21-24 h). The cells were diluted 1:10 to 1:100 for the bacteria and 1:500 to 1:5000 for the yeast, and 50 μl, 100 μl and 200 μl were plated on appropriate agar plates. The plates were incubated at 37° C. overnight, and the number of colonies was counted. The antimicrobial effect of the peptides has been stated as percentage of killed cells: [1−(cell survival after incubation with the peptide)/(cell survival after control incubation)]×100.

S. aureus (ATCC 25923) = assay: TEM and IEM of peptide-treated bacteria; type: cell-based, Staphylococcus aureus
Procedure: FIG. 10. Morphology of peptide-treated S. aureus. […] As a negative control cells were incubated in buffer without peptide. For the immune-EM, bacteria were incubated with a polyclonal antiserum to DCD-1, and the reactivity was detected by immunogold labeling. Seen is the binding of DCD to the bacterial surface.
TEM and IEM. Liquid cultures of S. aureus (ATCC 25923) cells grown up to mid-logarithmic phase were washed twice in 10 mM sodium phosphate buffer (pH 7.4). […] In parallel, antimicrobial assays with both peptides were performed which confirmed the antibacterial activity of both peptides. For immune electron microscopy (IEM), cells were fixed in PLP and centrifuged, and the resulting bacterial pellet was embedded in 3.5% agarose at 37° C. and cooled on ice. Small parts of agarose blocks were embedded in Lowicryl (Polysciences, Eppelheim, Germany). Ultrathin sections (50 nm) were mounted on Formvar-coated nickel grids and incubated with rabbit anti-DCD, followed by 10-nm gold-conjugated goat anti-rabbit immunoglobulin G (Auroprobe EM; Amersham, Freiburg, Germany). In control samples the primary antibody was omitted. Samples were examined by using a Zeiss 109 transmission electron microscope (Zeiss, Oberkochen, Germany). For transmission EM (TEM) bacterial pellets were fixed in Karnovsky's fixative, postfixed in 1% osmium tetroxide, and embedded in Epon.

| Molecule | IC90 (S. aureus dltA) [µg/mL] | IC90 [1] | IC90 (S. aureus mprF) [µg/mL] | IC90 [2] | IC90 (S. epidermidis Δica) [µg/mL] | IC90 (E. coli ML-35p) [µg/mL] | IC90 (E. coli ATCC 25922) | IC90 (P. aeruginosa ATCC 27853) | antimicrobial effect (percentage of killed cells) [3] | morphological changes of S. aureus (transmission EM) (S. aureus (ATCC 25923); 100 μg/ml for 4 h) | localisation of peptide on bacteria (immune-EM) (S. aureus (ATCC 25923); antiserum to DCD-1, immunogold labeling) |
| --- | --- | --- | --- | --- | --- | --- | --- | --- | --- | --- | --- |
| LEKGLDGAKKAVGGLGKLGKDAVEDLESVGKGAVHDVKDVLDSVL [LEK-45] | > 200 | >200 (>44) μg/ml | > 200 | 200 (44) μg/ml | > 200 | > 200 | >200 (>44) μg/ml | >200 (>44) μg/ml | – | – | – |
| SSLLEKGLDGAKKAVGGLGKLGKDA [SSL-25] | >200 | 48 µg/mL | >200 | >200 µg/mL | – | 9 | 10 µg/mL | 200 µg/mL | – | – | – |
| YDPEAASAPGSGNPCHEASAAQKENAGEDP [Y-P30, survival promoting peptide Y-P30 with one amino acid replaced, reference compound] | – | – | – | – | – | – | – | – | no appreciable antimicrobial effect | – | – |
| SSLLEKGLDGAKKAVGGLGKLGKDAVEDLESVGKGAVHDVKDVLDSV (synthetic fragment of DCD protein) [DCD-1] | – | – | – | – | – | – | – | – | quantity-dependent antimicrobial effect | no signs of cell wall damage. Instead, we observed cellular disintegration | able to bind to the cell surface but is not found in the bacterial cytoplasm |
| SSLLEKGLDGAKKAVGGLGKLGK [SSL-23] | 10 | 10 µg/mL | 50 | 8 µg/mL | >200 | – | 10 µg/mL | >200 µg/mL | – | – | – |
| SSLLEKGLDGAKKAVGGLGKLGKDAVEDLESVGKGAVHDVKDVLDSVL [DCD-1L] | 6 | 45 µg/mL | 50 | 10 µg/mL | >200 | 30 | 45 µg/mL | >200 µg/mL | – | – | – |
| SSLLEKGLDGAKKAVGGLGKLGKDAVEDL [SSL-29] | – | >200 (>69) μg/ml | 180 | 200 (69) μg/ml | – | > 200 | >200 (>69) μg/ml | >200 (>69) μg/ml | – | – | – |
| DCD protein: DCD protein comprising the sequence SEQ ID No: 1, 110 amino acid residues (protein, listed as Homo sapiens) MRFMTLLFLTALAGALVCAYDPEAASAPGSGNPCHEASAAQKENAGEDPGLARQAPKPRKQRSSLLEKGLDGAKKAVGGLGKLGKDAVEDLESVGKGAVHDVKDVLDSVL | – | – | – | – | – | – | – | – | toxic | – | – |
